Results as given in patent US7604990B2, “Methods of regulating differentiation in stem cells” (ES Cell International Pte Ltd., priority 2002, dated 2009).

Experiments:
SPK in MEF = experiment: Sphingosine kinase activity in MEF after PDGF; format: cell-based, mouse; details: PDGF 20 ng/ml
[1] = tested on: sphingosine kinase (SPK) in hES cells; experiment: Sphingosine kinase activity in hES cells after PDGF; format: cell-based, human; details: PDGF 20 ng/ml
Method: hES-3 cells plated without MEF for 24 hr and depleted of serum for a further 18 hr were incubated in the presence of PDGF (20 ng/ml) for various time periods and were harvested and lysed by sonication (2 W for 30 s at 4° C.) in lysis buffer containing 50 mM Tris/HCl (pH 7.4), 10% glycerol, 0.05% Triton X-100, 150 mM NaCl, 1 mM dithiothreitol, 2 mM Na3VO4, 10 mM NaF, 1 mM EDTA and protease inhibitors (Complete™, Roche, Mannheim, Germany). SPK activity was determined using D-erythro-sphingosine and […] as substrates, as previously described^19. Protein concentrations in cell homogenates were determined with Coomassie Brilliant Blue reagent (Bio-Rad, Regent Park, NSW, Australia) using bovine serum albumin as standard.

PDGF
activation of SPK in MEF (SPK in MEF): did not induce a significant statistical activation of SPK | duration of SPK activity enhancement [1]: at least 60 min | SPK activity ([1]; 30 min, value printed in brackets after 'basal values', n=3): 75.3 ± 3.92 nmol/min/mg | SPK activity relative to basal values ([1]; after 30 min of incubation): 1.6 fold
